Series [1] relates to human red blood cells. In words: Haemolytic assay. It is filed as cell-based. The conditions noted are these: for SIrb (selectivity index on red blood cell) = HC50/IC50: HC50 on red blood cells / IC50 on L. amazonensis promastigotes.
Series [2] concerns promastigotes of Leishmania amazonensis (IFLA/BR/67/PH8). In words: Antileishmanial activity against promastigotes (MTT viability). It is filed as cell-based. On the procedure:
The promastigote viabilities were determined by the ability of living cells to reduce the yellow MTT (3-(4,5-dimethylthiazol-2-yl)-2,5-diphenyltetrazolium bromide, a tetrazole) to purple formazan. Promastigote forms of Leishmania amazonensis (IFLA/BR/67/PH8) in the log phase of growth were incubated at 25 °C in 96-well cellular culture plates (TPP, Trasadingen, Switzerland) with 1 × 10^5 cells/well in 100 μL Schneider’s Drosophila medium supplemented with 20% of FBS in the presence or absence of different concentrations of compounds 4–15. The growth of promastigotes forms was evaluated simultaneously in the presence of Glucantime®, as reference drug. After 72 h of incubation, […] of a 5 mg·mL^−1 MTT solution was added. After 4 h of incubation at 25 °C, the formed product formazan was dissolved in […] of sodium dodecyl sulfate (SDS) at 10% for 24 h, and the absorbance was measured by spectrophotometry at a 545 nm wavelength. The percentage viability was calculated from the ratio of OD readings in the wells with compounds versus the wells without compounds × 100. The concentration that inhibited 50% of growth (IC50) was determined by regression analysis using the SPSS 8.0 software for Windows (IBM, New York, NY, USA). All experiments were performed at least three times, and each experiment was performed in triplicate. […]

[3] abbreviates: haemolysis of human red blood cells.
[4] abbreviates: Leishmania amazonensis, promastigotes of L. amazonensis, 72 h incubation, MTT, average of three independent experiments ± standard error of the mean, read-out: IC50.

Like-named read-outs stand apart in the source and are kept apart here.

Regarding Glucantime^®, the HC50 in series [1] worked out at 1175.02 µM. The 50% inhibitory concentration (IC50) in series [2] (promastigotes of L. amazonensis, 72 h incubation, MTT, average of three independent experiments ± standard error of the mean, read-out: IC50) came out at 1630 ± 437 µM.

For the molecule `C=CCc1ccc(OC(=O)C(=C)C(O)c2ccc([N+](=O)[O-])cc2)c(OC)c1` (stereo not shown) [Compound 7, 4-Allyl-2-methoxyphenyl 2-(hydroxy(4-nitrophenyl)methyl)acrylate], in series [1], the “SIrb (selectivity index on red blood cell) = HC50/IC50” value is >45.71. The HC50 in series [1] (setting [3]) was >400 µM. Further, the IC50 in series [2] (setting [4]) stood at 8.75 ± 0.44 µM.

On to `C=C(C(=O)Oc1cc(C(C)C)ccc1C)C(O)c1ccc([N+](=O)[O-])cc1` (stereo not shown) [Compound 13, 5-Isopropyl-2-methylphenyl 2-(hydroxy(4-nitrophenyl)methyl)acrylate], for which the IC50 in series [2] (setting [4]) turned out to be 18.1 ± 0.9 µM.

`C[C@@H]1[C@H](O)[C@@H](C)/C=C/C=C/C=C/C=C/C=C/C=C/C=C/[C@H](O[C@@H]2O[C@H](C)[C@@H](O)[C@H](N)[C@@H]2O)C[C@@H]2O[C@](O)(C[C@@H](O)C[C@@H](O)[C@H](O)CC[C@@H](O)C[C@@H](O)CC(=O)O[C@H]1C)C[C@H](O)[C@H]2C(=O)O` [AmphotericinB, amphotericin B]: the “SIrb (selectivity index on red blood cell) = HC50/IC50” value in series [1] is given as 22.34. Besides, in series [1] (setting [3]), the HC50 was found to be 11.61 µM. In addition, the IC50 in series [2] (setting [4]) turned out to be 0.52 ± 0.03 µM.

Take `C=CCc1ccc(OC(=O)C(=C)C(O)c2cccc([N+](=O)[O-])c2)c(OC)c1` (stereo not shown) [Compound 8, 4-Allyl-2-methoxyphenyl-2-(hydroxy(3-nitrophenyl)methyl)acrylate]: the “SIrb (selectivity index on red blood cell) = HC50/IC50” value in series [1] is recorded as >38.13. In series [1] (setting [3]), the HC50 was >400 µM. Further, in series [2] (setting [4]), the IC50 came to 10.5 ± 0.52 µM.

Turning to `C=C(C(=O)Oc1cc(C(C)C)ccc1C)C(O)c1ccccc1[N+](=O)[O-]` (stereo not shown) [Compound 15, 5-Isopropyl-2-methylphenyl 2-(hydroxy(2-nitrophenyl)methyl)acrylate], the IC50 in series [2] (setting [4]) was 13.6 ± 0.68 µM.

Turning to `Cc1ccc(C(C)C)c(O)c1` [Compound 5, thymol], the IC50 in series [2] (setting [4]) turned out to be 115 ± 5.77 µM.

For `C=C(C(=O)Oc1cc(C)ccc1C(C)C)C(O)c1ccc([N+](=O)[O-])cc1` (stereo not shown) [Compound 10, 2-Isopropyl-5-methylphenyl 2-(hydroxy(4-nitrophenyl)methyl)acrylate], the IC50 in series [2] (setting [4]) came out at 11.4 ± 0.57 µM.

Turning to `C=CCc1ccc(O)c(OC)c1` [Compound 4, eugenol], the “SIrb (selectivity index on red blood cell) = HC50/IC50” value in series [1] was >5.18. For the same molecule, the HC50 in series [1] (setting [3]) was >400 µM. For the same molecule, the IC50 in series [2] (Leishmania amazonensis, 72 h) amounted to 77.2 ± 1.77 µM.

Regarding `C=C(C(=O)Oc1cc(C)ccc1C(C)C)C(O)c1cccc([N+](=O)[O-])c1` (stereo not shown) [Compound 11, 2-Isopropyl-5-methylphenyl 2-(hydroxy(3-nitrophenyl)methyl)acrylate], the IC50 in series [2] (setting [4]) was found to be 10.6 ± 0.53 µM.

For `C=CCc1ccc(OC(=O)C(=C)C(O)c2ccccc2[N+](=O)[O-])c(OC)c1` (stereo not shown) [Compound 9, 4-Allyl-2-methoxyphenyl 2-(hydroxy(2-nitrophenyl)methyl)acrylate], in series [1], the “SIrb (selectivity index on red blood cell) = HC50/IC50” value is listed as >84.92. For the same molecule, the HC50 in series [1] (setting [3]) was >400 µM. Further, in series [2] (setting [4]), the IC50 stood at 4.71 ± 0.24 µM.

Consider `C=C(C(=O)Oc1cc(C(C)C)ccc1C)C(O)c1cccc([N+](=O)[O-])c1` (stereo not shown) [Compound 14, 5-Isopropyl-2-methylphenyl 2-(hydroxy(3-nitrophenyl)methyl)acrylate], for which the concentration for half-maximal inhibition (IC50) in series [2] (setting [4]) was 22.3 ± 1.12 µM.

The molecule `Cc1ccc(C(C)C)cc1O` [Compound 6, carvacrol] showed a concentration for half-maximal inhibition (IC50) in series [2] (Leishmania amazonensis, 72 h) of 138 ± 6.91 µM.

On to `C=C(C(=O)Oc1cc(C)ccc1C(C)C)C(O)c1ccccc1[N+](=O)[O-]` (stereo not shown) [Compound 12, 2-Isopropyl-5-methylphenyl 2-(hydroxy(2-nitrophenyl)methyl)acrylate], for which the IC50 in series [2] (setting [4]) worked out at 5.91 ± 0.3 µM.

Broadly, the HC50 is the concentration giving 50% haemolysis. As usually defined, the IC50 is the point on the concentration scale where inhibition reaches its midpoint.

Source of the values: article PMC6274563, “Synthesis and In Vitro Anti Leishmania amazonensis Biological Screening of Morita-Baylis-Hillman Adducts Prepared from Eugenol, Thymol and Carvacrol” (Molecules, 2016).
